Type in all cases: in vivo
The test system of one data set is coronary vessels. The experiment in a line: Dosage at which a coronary effect is observed, i.v. As to conditions: for minimal effective dose: iv.
A short description of data set [1]: Toxicity (Mouse), conventional LD50 determination p.o. The conditions noted are these: in vivo, po. From the text: (§1) The pharmacological properties of these compounds are conveniently observed in well-known animal models which parallel the desired clinical response. Similarly toxicity is low, as measured for example in the conventional LD50 determination.
Another data set concerns hypertensive rat. The data set is described as follows: Blood pressure effect on hypertensive rat p.o. The conditions noted are these: given as "from" dose; for minimal effective dose: po, read-out: Blood pressure effect on hypertensive rat (dose from which the effect is seen).
Text: as §1

In another data set the test system is Mouse. The data set is described as follows: Toxicity (Mouse), conventional LD50 determination p.o.
Text: as §1

Molecules are shown by their SMILES.

A word on the LD50: it is the dose at which mortality reaches 50%. Lower therefore signals a more toxic substance. As to `CCCOCCOC(=O)C1=C(C)NC(C)=C(C(=O)OCC)C1c1ccccc1OC` (stereo not drawn) [Example 7, 2,6-dimethyl-4-(2'-methoxyphenyl)-1,4-dihydropyridine-3,5-dicarboxylic acid 3-ethyl ester-5-β-propoxyethyl ester], the figures for the minimal effective dose with coronary vessels and with hypertensive rat were 0.05 mg/kg and not below 31.5 mg/kg, respectively. The compound also gave a median lethal dose (LD50) in data set [1] of more than 3000 mg/kg.

Regarding `C#CCOC(=O)C1=C(C)NC(C)=C(C(=O)OCC)C1c1ccccc1OC` (stereo not shown) [Example 18, 2,6-dimethyl-4-(2'-methoxyphenyl)-1,4-dihydropyridine-3,5-dicarboxylic acid 3-propargyl ester 5-ethyl ester], the minimal effective dose with coronary vessels is 0.05 mg/kg; with hypertensive rat it was not below 10 mg/kg. Besides, the 50% lethal dose (LD50) in data set [1] amounted to 3000 mg/kg.

Regarding `C#CCOC(=O)C1=C(C)NC(C)=C(C(=O)OCC)C1c1ccccc1C(F)(F)F` (stereo not shown) [Example 13, 2,6-dimethyl-4-(2'-trifluoromethylphenyl)-1,4-dihydropyridine-3,5-dicarboxylic acid 3-propargyl ester 5-ethyl ester], the “Dose at which a coronary effect is observed” value in the data set with coronary vessels was 0.05 mg/kg. The “Toxicity (Mouse) LD50” value with Mouse came to 2000 mg/kg. In addition, in the data set on hypertensive rat, the “Blood pressure effect on hypertensive rat (dose from which the effect is seen)” value is not below 1.0 mg/kg.

On to `C#CCOC(=O)C1=C(C)NC(C)=C(C(=O)OC)C1c1ccccc1F` (stereo not shown) [Example 16, 2,6-dimethyl-4-(2'-fluorophenyl)-1,4-dihydropyridine-3,5-dicarboxylic acid 3-propargyl ester 5-methyl ester], for which the values for the minimal effective dose in the data set with coronary vessels and with hypertensive rat were 0.05 mg/kg and not below 10 mg/kg, respectively. Further, in data set [1], the 50% lethal dose (LD50) was found to be 200 mg/kg.

With `CCOC(=O)C1=C(C)NC(C)=C(C(=O)OCCOC)C1c1ccccc1Cl` (stereo not drawn) [Example 14, 2,6-dimethyl-4-(2'-chlorophenyl)-1,4-dihydropyridine 3,5-dicarboxylic acid 3-β-methoxyethyl ester 5-ethyl ester], the minimal effective dose in the data set with coronary vessels was 0.01 mg/kg; in the data set with hypertensive rat it was not below 3.1 mg/kg. Also, the LD50 in data set [1] is 1000 mg/kg.

Regarding `C=CCOC(=O)C1=C(C)NC(C)=C(C(=O)OCC)C1c1cccc(Cl)c1` (stereo not shown) [Example 17, 2,6-dimethyl-4-(3'-chlorophenyl)-1,4-dihydropyridine-3,5-dicarboxylic acid 3-allyl ester 5-ethyl ester], the minimal effective dose in the data set on coronary vessels was 0.01 mg/kg; with hypertensive rat, not below 10 mg/kg. The 50% lethal dose (LD50) in data set [1] is more than 3000 mg/kg.

Take `C=CCOC(=O)C1=C(C)NC(C)=C(C(=O)OCC)C1c1ccccc1C` (stereo not shown) [Example 1, 2,6-dimethyl-4-(2'-methylphenyl)-1,4-dihydropyridine-3,5-dicarboxylic acid 3-ethyl ester-5-allyl ester]: the results for the minimal effective dose in the data set with coronary vessels and in the data set on hypertensive rat were 0.05 mg/kg and not below 10 mg/kg, respectively. Moreover, in data set [1], the LD50 was more than 3000 mg/kg.

`C=CCOC(=O)C1=C(C)NC(C)=C(C(=O)OCC)C1c1ccccc1C(F)(F)F` (stereo not shown) [Example 5, 2,6-dimethyl-4-(2'-trifluoromethylphenyl)-1,4-dihydropyridine-3,5-dicarboxylic acid 3-ethyl ester-5-allyl ester]: the minimal effective dose in the data set on coronary vessels is 0.001 mg/kg; with hypertensive rat, not below 3.1 mg/kg. For the same compound, in data set [1], the LD50 came to 630 mg/kg.

As for `C=CCOC(=O)C1=C(C)NC(C)=C(C(=O)OCC)C1c1ccccc1Cl` (stereo not shown) [Example 8, 2,6-dimethyl-4-(2'-chlorophenyl)-1,4-dihydropyridine-3,5-dicarboxylic acid 3-ethyl ester-5-allyl ester], the figures for the minimal effective dose with coronary vessels and with hypertensive rat were 0.01 mg/kg and not below 1 mg/kg, respectively. Moreover, the median lethal dose (LD50) in data set [1] amounted to 630 mg/kg.

As to `C#CCOC(=O)C1=C(C)NC(C)=C(C(=O)OCC)C1c1ccc(C(=O)OCC)cc1` (stereo not shown) [Example 19, 2,6-dimethyl-4-(4'-carboxyethylphenyl)-1,4-dihydropyridine-3,5-dicarboxylic acid 3-propargyl ester 5-ethyl ester], the 50% lethal dose (LD50) in data set [1] is 3000 mg/kg.

For the compound `C#CCOC(=O)C1=C(C)NC(C)=C(C(=O)OCC)C1c1ccccc1C(F)(F)F` (stereo not shown) [Example 4, 2,6-dimethyl-4-(2'-trifluoromethylphenyl)-1,4-dihydropyridine-3,5-dicarboxylic acid 3-ethyl ester-5-propargyl ester], the “Dose at which a coronary effect is observed” value in the data set on coronary vessels is on record as 0.005 mg/kg. Further, in the data set with Mouse, the “Toxicity (Mouse) LD50” value is given as 200 mg/kg. Moreover, the minimal effective dose in the data set with hypertensive rat is not below 1 mg/kg.

On to `C=CCOC(=O)C1=C(C)NC(C)=C(C(=O)OC(C)C)C1c1cccc(C(F)(F)F)c1` (stereo not shown) [Example 15, 2,6-dimethyl-4-(3'-trifluoromethylphenyl)-1,4-dihydropyridine-3,5-dicarboxylic acid 3-isopropyl ester 5-allyl ester], for which the figures for the minimal effective dose with coronary vessels and in the data set on hypertensive rat were 0.05 mg/kg and not below 3.1 mg/kg, respectively. In addition, the LD50 in data set [1] was more than 3000 mg/kg.

Turning to `C#CCOC(=O)C1=C(C)NC(C)=C(C(=O)OCC)C1c1ccccc1C` (stereo not shown) [Example 2, 2,6-dimethyl-4-(2'-methylphenyl)-1,4-dihydropyridine-3,5-dicarboxylic acid 3-ethyl ester-5-propargyl ester], the minimal effective dose with coronary vessels is 0.01 mg/kg; in the data set on hypertensive rat it was not below 10 mg/kg. The LD50 in data set [1] turned out to be 800 mg/kg.

`C=CCOC(=O)C1=C(C)NC(C)=C(C(=O)OC)C1c1cc(Br)c(OC)c(OC)c1` (stereo not shown) [Example 10, 2,6-dimethyl-4-(3', 4'-dimethoxy-5-bromophenyl)-1,4-dihydropyridine-3,5-dicarboxylic acid 3-methyl ester-5-allyl ester] came in with a minimal effective dose in the data set on coronary vessels of 5 mg/kg. This compound yielded an LD50 in data set [1] of more than 3000 mg/kg.

Turning to `C=CCOC(=O)C1=C(C)NC(C)=C(C(=O)OC)C1c1ccccc1F` (stereo not shown) [Example 3, 2,6-dimethyl-4-(2'-fluorophenyl)-1,4-dihydropyridine-3,5-dicarboxylic acid 3-methyl ester-5-allyl ester], the minimal effective dose in the data set with coronary vessels is 0.01 mg/kg; with hypertensive rat, not below 3.1 mg/kg. Moreover, the 50% lethal dose (LD50) in data set [1] was 800 mg/kg.

Compound `C=CCOC(=O)C1=C(C)NC(C)=C(C(=O)OCC)C1c1ccc(OC)c(OC)c1OC` (stereo not shown) [Example 9, 2,6-dimethyl-4-(2', 3', 4'-trimethoxyphenyl)-1,4-dihydropyridine-3,5-dicarboxylic acid 3-ethyl ester-5-allyl ester] yielded an LD50 in data set [1] of 3000 mg/kg.

`C#CCOC(=O)C1=C(C)NC(C)=C(C(=O)OC)C1c1ccccc1C(F)(F)F` (stereo not shown) [Example 12, 2,6-dimethyl-4-(2'-trifluoromethylphenyl)-1,4-dihydropyridine 3,5-dicarboxylic acid 3-propargyl ester 5-methyl ester]: the “Dose at which a coronary effect is observed” value in the data set with coronary vessels was found to be 0.003 mg/kg. In addition, the “Toxicity (Mouse) LD50” value in the data set on Mouse worked out at 100 mg/kg. Also, in the data set on hypertensive rat, the “Blood pressure effect on hypertensive rat (dose from which the effect is seen)” value is listed as not below 0.3 mg/kg.

Consider `C#CCOC(=O)C1=C(C)NC(C)=C(C(=O)OC)C1c1ccccc1OC` (stereo not shown) [Example 11, 2,6-dimethyl-4-(2'-methoxyphenyl)-1,4-dihydropyridine-3,5-dicarboxylic acid 3-propargyl ester 5-methyl ester], for which the minimal effective dose was 0.05 mg/kg in the data set on coronary vessels and not below 10 mg/kg with hypertensive rat. In addition, the median lethal dose (LD50) in data set [1] is more than 3000 mg/kg.

In the case of `C#CCOC(=O)C1=C(C)NC(C)=C(C(=O)OC)C1c1ccccc1C(F)(F)F` (stereo not shown) [Example 6, 2,6-dimethyl-4-(2'-trifluoromethylphenyl)-1,4-dihydropyridine-3,5-dicarboxylic acid 3-methyl ester-5-propargyl ester], the minimal effective dose in the data set on coronary vessels is 0.005 mg/kg; in the data set with hypertensive rat, not below 0.3 mg/kg. This compound also displayed a 50% lethal dose (LD50) in data set [1] of 200 mg/kg.

The values above are taken from patent US3932646A, “Pharmaceutical compositions containing unsymmetrical esters of 1,4-dihydropyridine 3,5-dicarboxylate” (Farbenfabriken Bayer AG, priority 1971, dated 1976).
